This test deals with NIH:OVCAR-3 cells. Kind of test: In vitro irradiation survival (clonogenic), monolayer. The class given is cell-based, human. As to conditions: OVCAR-3 monolayer. The protocol: In vitro studies were carried out using three well known cell lines, the cells from which were exposed to radiation from: (1) an X-ray source; (2) P-32 chromic phosphate; and (3) Bi-212 chloride. The three cell lines that were used are V-79, which is a Chinese hamster lung fibroblast, Ehrlich-Lettre Ascites carcinoma (ATCC CCL 77), which is an ascites producing -tumor, and NIH:OVCAR-3 (ATCC HTB 161), which is a human ovarian adenocarcinoma. These well known cell lines are predictive of what happens in vivo. The cells were grown as monolayers and into spheroid formations and subsequently irradiated, as described herein.
The V-79 cells were maintained under exponential growth conditions in minimal essential medium (MEM) supplemented with 10 percent fetal bovine serum. The Ehrlich-Lettre Ascites carcinoma cells were maintained in 90 percent NCTC 109 supplemented with 10 percent fetal bovine serum. The NIH:OVCAR-3 cells were maintained in RPMI 1640 and 10 percent fetal bovine serum.
Cells from each of the cell lines were irradiated by subjecting the cells to X-ray radiation, P-32, and Bi-212. The X-ray source that was used is a General Electric 250 kvp Maxitron, 26 […] (mA) (HVL 1.5 mm Cu) operated at a dose rate of 1.11 Greys per minute (Gy/min). The cells, in both monolayer and spheroid form were exposed at room temperature and then immediately plated for survival.
Cells in both monolayer and spheroid were exposed to P-32 chromic phosphate. The radiation dose to each sample was calculated as: […]
After exposure, the cells were washed in phosphate-buffered saline (PBS) and immediately plated for survival.
The cell lines were also irradiated using Bi-212. Bismuth-212 was eluted from a generator as described in the aforementioned patent to Atcher et al., which was a cation-exchange column supporting Ra-224, with 1 ml of 0.15 N HI, and the generator was purged with 2 ml of distilled deionized water. […] The filter was purged with 1 ml of distilled deionized water, and the radioactivity was assayed using a calibrated 3×3-in. […]
Cells were exposed over a period of four hours. The dose (D) per microCurie was calculated and corrected for decay as follows: [formula] where V=volume in milliliters, and […]
Following plating, survival measurements were taken for each of the irradiated cell samples. […] The plates were then stained with crystal violet and colonies greater than 50 cells were scored. The surviving fraction was then determined.
Intrinsic radiosensitivity (Do) was calculated from the survival curves. […] Relative biological effectiveness (RBE) was determined as the ratio of the absorbed dose of X-ray to that of alpha radiation to produce the same degree of biological effect.

The record followed here is patent publication US6126909A, “Process and apparatus for the production of BI-212 and a use thereof” (Arch Development Corporation, priority 1999, dated 2000).

With `[212Bi]` [Bi-212, bismuth-212], the “D0 (intrinsic radiosensitivity)” value (dose increment reducing survival to 37 percent) stood at 0.75 Gy. Also, the “Relative biological effectiveness (RBE)” value (relative to X-ray) is listed as 3.19.
